Measured values: article PMC9321718 (Pharmaceuticals, 2022)
Values after ≈ are worked out from the molar mass of the structure shown. Read-outs that look alike come from different tables or passages of the source.

How the values were obtained:
[1] = Dissolution of APAB on inclusion into CD, observed in a light microscope; format: physicochemical; conditions: MCD and HPCD
Experimental: The dependence of the dissolution degree on the content of CD in the system was determined. […] Since soluble complex forms of EG, apiol and other individual components of essential oils have been obtained, a quantitative study of the adjuvant and synergistic activities of APAB is relevant but previously impossible because of the stratification of substances and the formation of oil fractions. The following are the results of experiments to determine the antibacterial and synergistic effects of adjuvant–CD complexes.

[2] = Formation of inclusion complexes with HPCD (UV spectroscopy, Hill linearization); format: physicochemical; conditions: pH 6.2, 22 °C; for EE, % / LC, %: 0.01 M
Experimental: To optimize the system composition, similar experiments were carried out on the formation of EG and apiol inclusion complexes with HPCD (Figure S1). […] According to these changes, the dissociation constants of the EG–HPCD and apiol–HPCD complexes (Figure S2) were calculated by Hill’s equation (Table 1). […] The physicochemical parameters of the interaction of APAB and terpenoids (X) with CD were studied by determining the concentration of substances in the aqueous fraction ([APAB] + [APAB-MCD]) according to the calibration dependence (Figure 1C) for systems with a constant amount of the essential oil component X and the concentration gradient MCD (Table 1). Theta (θ) is a fraction of the bound substance X:θ = [X-MCD]/([X-MCD] + [X]) and was calculated based on the dependence of the absorption intensity X on the MCD concentration in the system in the form of a sigmoidal Hill curve with subsequent linearization (Section 3, Section 3.3 and Section 3.4).
The molar excess of CD varied from 0.04 to 10). Further, the complexes were incubated for 1 h at 37 °C and then centrifuged ([…], 15 min, Eppendorf tubes) to separate the insoluble fractions. Complexes were studied by UV and FTIR spectroscopy.
UV spectra of solutions (point 3.3.1) were recorded on the AmerSham Biosciences UltraSpec 2100 pro device (USA) three times in the range of 200–400 nm in a quartz cell Hellma 100–QS with an optical path of 1 cm. Background spectrum (5 mM sodium phosphate buffer (pH 6.2) with 50% EtOH) was subtracted as a blank.
(1) Calculation of the dissociation constants X–MCD and X–HPCD, where X is a “guest” compound, considering the equilibrium: Xaq + n MCDaq ↔ X·nMCDaq, where Kd = [MCDaq]^n · [Xaq]/[X·nMCDaq].
First, fitting of the curves of change of the analytical signal ξ (peak intensity or peak position) versus concentration of the MCD or HPCD or was carried out using the Hill equations: (1) ξ = ξ∞ · [MCD]^n/([MCD]^n + K^n), where ξ∞—horizontal asymptote; (2) ξ = ξ0 + (ξ∞–ξ0) · [MCD]^n/([MCD]^n + K^n). Second, calculation n and Kd values by Hill’s linearization in n-binding site model: lg (θ/(1 – θ)) = n · lg [L] – lg Kd, where θ = |(ξ – ξ0)/(ξ∞ − ξ0)|is a fraction of the bound substance. N in Hill equation—number of drug molecules per CD torus.

[3] = tested on: B. subtilis (NCIB 8054); test: Agar diffusion test, MIC; format: cell-based, Bacillus subtilis; conditions: Bacillus subtilis
Experimental: The strains used in this study were Escherichia coli (NCIB 12210) and Bacillus subtilis (NCIB 8054) from National Resource Center All-Russian collection of industrial microorganisms SIC “Kurchatov Institute”). The culture was cultivated for 18–20 h at 37 °C to CFU ≈ 5 × 10^6 – 8 × 10^6 (determined by A600) in liquid nutrient medium Luria–Bertani (pH 7.2): E. coli—without stirring, B. subtilis—with stirring 180 rpm.
The study of the antibacterial effect of Lev and adjuvants was carried out by (a) agar diffusion test and (b) broth micro-dilution method. (a) A measured 500 µL of 100-fold culture dilution was evenly distributed over a solid nutrient medium (LB, pH 7.2) on a Petri dish. After 20 min, agar disks with a diameter of 9 mm were removed from the cups and 50 µL of the test samples were placed in the formed wells at the required concentration in a sterile PBS buffer (see Section 3.3 (2)). After 30 min, Petri dishes were placed in a 37 °C thermostat. After 24 h, the diameters of the growth inhibition zones were measured. Minimum inhibitory concentrations (MICs) are determined as the infimum of multiple concentrations of an antimicrobial that inhibits the visible growth of a microorganism after overnight incubation. (b) According to the standard broth micro-dilution method, 200 µL of the overnight culture (5 × 10^6 CFU) was placed into a 96 micro-titer plate wells. Then 50 µL of tested samples was added. The range of tested Lev concentration was 4–200 ng/mL, adjuvants concentration was in the range of 0.008–2 mg/mL. Optical density measurements at 600 nm were taken at various times (0, 3, and 18 h) to determine the number of cells. The dependence of CFU (determined by A600) on the concentration of Lev, APAB or terpenoid (briefly X) was approximated according to the Boltzmann equation (Origin software): CFU = (control CFU)/(1 + exp(([X] − MIC50)/constant value)). MIC50 and MIC90 are defined as concentrations at which the inhibition of bacterial growth by 50 and 90% is noticeable, respectively. In other words, the concentration at which the ordinate value (CFU) is equal to 50 or 10% of the control sample minus the background.

[4] = Dissociation constant of complexes with HPCD by FTIR spectroscopy; format: physicochemical; conditions: complex with HPCD, aqueous solutions, 22 °C
[5] = tested on: E. coli; design: method as in PMID 20214546; conditions: EG in the form of a complex with CD; cited from earlier work
[6] = pH 6.2
[7] = Solubility of X in water and in the presence of MCD/HPCD (UV absorbance)
[8] = NCIB8054, B. subtilis 7 × 10^6 CFU, agar diffusion test, inclusion complexes with MCD, LB pH 7.2, 37 °C, 20 h, read-out: MIC

Row | Compound | amount of CD required for a noticeable conversion to the complex/soluble form [1] | molar excess of CD for almost complete dissolution [1] | EE, % [2] | LC, % [2] | n [2] | MIC [3, 8] | Kd [4] | concentration already active in growth inhibition [5] | Cmax in the Presence of 2 mM HPCD [6] | Cmax in the Presence of 2 mM MCD [6] | Cmax in the Presence of 10 mM HPCD [6] | Cmax in the Presence of 10 mM MCD [6] | MIC ([3]; NCIB8054, B. subtilis, agar diffusion test, read-out: MIC) | increased solubility of APAB, times ([7]; APAB–MCD molar ratio 1:5 vs water without MCD, UV) | MIC ([3]; NCIB8054, 20 h, pH 7.2) | solubility ([7]; 22 °C, pH 6.2, water)
1 | C=CCc1ccc(O)c(OC)c1 [Eugenol, 4-allyl-2-methoxyphenol] | equimolar | 5 fold molar excess | 56 ± 7% | 9 ± 1% | 1.2 ± 0.1 | 1000 µg/mL (≈ 6.09 mM) | 4.1 ± 0.3 mM | 0.5 mg/mL | 8.3 ± 0.2 (MCD), 8.5 ± 0.1 (HPCD) mM | 8.3 ± 0.2 (MCD), 8.5 ± 0.1 (HPCD) mM | 11 ± 1 (MCD), 13 ± 1 (HPCD) mM | 11 ± 1 (MCD), 13 ± 1 (HPCD) mM | – | – | – | –
2 | CC1CCC(C(C)C)C(O)C1 (centres unmarked) [Menthol] | – | – | – | – | – | 2600 µg/mL (≈ 16.6 mM) | – | – | – | 1.4 ± 0.2 mM | – | 8.5 ± 0.8 mM | 2.6 µg/mL (≈ 0.0166 mM) | – | – | –
3 | C=CCc1ccc2c(c1)OCO2 [Safrole] | – | – | – | – | – | 3900 µg/mL (≈ 24 mM) | – | – | – | – | – | – | – | 25 times | – | –
4 | C=CCc1cc(OC)c2c(c1OC)OCO2 [Apiol] | 2 fold molar excess | 10–15 fold molar excess | 7 ± 1% | 9 ± 1% | 1.56 ± 0.25 | – | 4 ± 0.3 mM | – | – | – | – | – | – | – | 5300 µg/mL (≈ 23.8 mM) | 130 ± 10 µM
